The values that follow come from patent publication US20240000950A1, “THERAPEUTIC CURE-PRO COMPOUNDS FOR TARGETED DEGRADATION OF BET DOMAIN PROTEINS, AND METHODS OF MAKING AND USING THEM” (CORNELL UNIVERSITY, priority 2020, published 2024).

In this assay the target is BRD4 (Homo sapiens, UniProt O60885). Nature of the assay: Summary of E3 ligase directed degradation of BRD4, estimated from Western Blot or WES (Tables 1-6). In kind it is cell-based. Also noted: endogenous in cells; host or cells: HeLa, MCF7 or HCT116. To be noted: for Degradation of BRD4, combination with VHL ligand [drawing 442]: aromatic 1,2-diol-containing VHL ligand drawn as drawing 442 (by the text apparently 8305); for Degradation of BRD4, combination with CRBN ligand [drawing 421] / Degradation of BRD4, combination with CRBN ligand [drawing 422] / Degradation of BRD4, combination with CRBN ligand [drawing 397]: Table 1; for Degradation of BRD4, combination with CRBN ligand [drawing 421]: CRBN ligand drawn as drawing 421 (by the text apparently 8047); for Degradation of BRD4, combination with CRBN ligand [drawing 422]: CRBN ligand drawn as drawing 422 (by the text apparently 8066); for Degradation of BRD4, combination with CRBN ligand [drawing 397]: aromatic 1,2-diol- or hindered cis-1,2-diol-containing CRBN ligand drawn as drawing 397 (by the text apparently 8046); for Degradation of BRD4, combination with MDM2 ligand [drawing 431]: Table 2, aromatic 1,2-diol-containing MDM2 ligand drawn as drawing 431 (by the text apparently 8314); for Degradation of BRD4, combination with CRBN ligand [drawing 457]: Table 4, aryl-boronic acid-containing CRBN ligand drawn as drawing 457 (by the text apparently 8048). As to the method:
HeLa, MCF7, or HCT116 cells (2.5-3×10^6) were treated for 24 hours with the indicated compounds solubilized in DMSO. The cells were washed in ice-cold PBS and were then lysed in RIPA lysis buffer (150 mM NaCl, 5 mM EDTA, 1% NP-40, 0.5% sodium deoxycholate, 0.1% SDS, 50 mM Tris, pH 8.0) with Roche protease inhibitor complete cocktail and phosphatase inhibitors (10 mM sodium fluoride, 10 mM sodium pyrophosphate, 1 mM sodium orthovanadate and 20 mM β-glycerophosphate). The total protein concentrations were determined by Bradford Protein Assay and 10-20 μg of protein was loaded onto 4-15% Tris-Glycine gradient gels (Biorad). After standard gel electrophoresis, the separated proteins were transferred to PVDF membrane by wet transfer. The immunoblots were then blocked for 1 hour in 5% skim milk in TBST or 5% BSA in TBST, according to manufacturer's instructions, before an overnight incubation at 4° C. with indicated antibodies and membranes. Membranes were then incubated with the appropriate horseradish peroxidase-conjugated secondary antibodies (1:5,000 dilution) for 1 h at room temperature and the bands were visualized using the Clarity Max Western ECL Substrate (Biorad) and the ChemiDoc Imaging System (Biorad). Signal was detected with ECL Western Blotting Substrate (Pierce) and X-ray film processed with a Konica SRX-101 X-ray film processor or captured by Bio-Rad's Chemidoc Imaging system.
WES Simple analysis was performed on WES system (ProteinSimple-Biotechne) according to the manufacturer's instructions. Total protein concentrations of cell lysates were determined by the Pierce BCA kit (Thermo Fisher). 3 μL of 0.3 μg/uL of the protein lysate was loaded onto a 12- to 230-kDa WES assay plate (ProteinSimple) where 300 nL sample was withdrawn through a capillary, subjected to electrophoretic separation of proteins by size, and followed by the simultaneous, HRP-based detection of proteins using the Anti-Rabbit Detection Module (Proteinsimple: #DM-001). The electropherograms were checked then the automatic peak detection was manually corrected if it was required.
A black check mark indicates efficacy of 30% to 70% or higher protein degradation.

On to `COc1ccc2c(c1)C(c1ccc(Cl)cc1)=N[C@@H](CC(=O)NCCNC(=O)c1cccc(B(O)O)c1)c1nnc(C)n1-2` [BRD-E02], for which the “Degradation of BRD4, combination with VHL ligand [drawing 442]” value (“Degradation of BRD4 … [drawing 442]” for short) (Table 3) was “✓ (A black check mark indicates efficacy of 30% to 70% or higher protein degradation)”.
As to `COc1ccc2c(c1)C(c1ccc(Cl)cc1)=N[C@@H](CC(=O)NCCCNC(=O)c1cccc(B(O)O)c1)c1nnc(C)n1-2` [BRD-E04], the “Degradation of BRD4, combination with CRBN ligand [drawing 421]” value (from here on “Degradation of BRD4 … [drawing 421]”) is listed as “✓ (A black check mark indicates efficacy of 30% to 70% or higher protein degradation)”; the “Degradation of BRD4, combination with CRBN ligand [drawing 422]” value (shortened to “Degradation of BRD4 … [drawing 422]”) is on record as “✓ (A black check mark indicates efficacy of 30% to 70% or higher protein degradation)”; the “Degradation of BRD4, combination with CRBN ligand [drawing 397]” value (shortened to “Degradation of BRD4 … [drawing 397]”) was “✓ (A black check mark indicates efficacy of 30% to 70% or higher protein degradation)”.
For the compound `COc1ccc2c(c1)C(c1ccc(Cl)cc1)=N[C@@H](CC(=O)NCCCCNC(=O)c1ccc(B(O)O)cc1)c1nnc(C)n1-2` [BRD-E05], the “Degradation of BRD4 … [drawing 421]” value was “✓ (A black check mark indicates efficacy of 30% to 70% or higher protein degradation)” and the “Degradation of BRD4 … [drawing 422]” value was “✓ (A black check mark indicates efficacy of 30% to 70% or higher protein degradation)”.
For `COc1ccc2c(c1)C(c1ccc(Cl)cc1)=N[C@@H](CC(=O)NCCCCCNC(=O)c1ccc(B(O)O)cc1)c1nnc(C)n1-2` [BRD-E07], the “Degradation of BRD4 … [drawing 422]” value is given as “✓ (A black check mark indicates efficacy of 30% to 70% or higher protein degradation)”.
With `COc1ccc2c(c1)C(c1ccc(Cl)cc1)=N[C@@H](CC(=O)NCc1ccc(B(O)O)cc1)c1nnc(C)n1-2` [BRD-E09, (4-((2-((4S)-6-(4-chlorophenyl)-8-methoxy-1-methyl-4H-benzo[f][1,2,4]triazolo[4,3-a][1,4]diazepin-4-yl)acetamido)methyl)phenyl)boronic acid], the “Degradation of BRD4 … [drawing 421]” value is “✓ (A black check mark indicates efficacy of 30% to 70% or higher protein degradation)”. Besides, the “Degradation of BRD4 … [drawing 442]” value (Table 3) is “✓ (A black check mark indicates efficacy of 30% to 70% or higher protein degradation)”.
As to `COc1ccc2c(c1)C(c1ccc(Cl)cc1)=N[C@@H](CC(=O)NCc1cccc(B(O)O)c1)c1nnc(C)n1-2` [BRD-E10], the “Degradation of BRD4 … [drawing 421]” value is on record as “✓ (A black check mark indicates efficacy of 30% to 70% or higher protein degradation)” and the “Degradation of BRD4 … [drawing 397]” value is “✓ (A black check mark indicates efficacy of 30% to 70% or higher protein degradation)”. Moreover, where the note is “Table 3, aromatic 1,2-diol-containing VHL ligand drawn as drawing 441 (by the text apparently 8304)”, the “Degradation of BRD4, combination with VHL ligand [drawing 441]” value is “✓ (A black check mark indicates efficacy of 30% to 70% or higher protein degradation)”.
Turning to `COc1ccc2c(c1)C(c1ccc(Cl)cc1)=N[C@@H](CC(=O)NCCc1ccc(B(O)O)cc1)c1nnc(C)n1-2` [BRD-E14, (4-(2-(2-((4S)-6-(4-chlorophenyl)-8-methoxy-1-methyl-4H-benzo[f][1,2,4]triazolo[4,3-a][1,4]diazepin-4-yl)acetamido)ethyl)phenyl)boronic acid], the “Degradation of BRD4 … [drawing 421]” value was “✓ (A black check mark indicates efficacy of 30% to 70% or higher protein degradation)” and the “Degradation of BRD4, combination with MDM2 ligand [drawing 431]” value is recorded as “✓ (A black check mark indicates efficacy of 30% to 70% or higher protein degradation)”. In addition, where the note is “Table 3”, the “Degradation of BRD4 … [drawing 442]” value is recorded as “✓ (A black check mark indicates efficacy of 30% to 70% or higher protein degradation)”.
For `COc1ccc2c(c1)C(c1ccc(Cl)cc1)=N[C@@H](CC(=O)NCCNC(=O)Cc1ccc(B(O)O)cc1)c1nnc(C)n1-2` [BRD-E27, (4-(2-((2-(2-((4S)-6-(4-chlorophenyl)-8-methoxy-1-methyl-4H-benzo[f][1,2,4]triazolo[4,3-a][1,4]diazepin-4-yl)acetamido)ethyl)amino)-2-oxoethyl)phenyl)boronic acid], the “Degradation of BRD4 … [drawing 421]” value was “✓ (A black check mark indicates efficacy of 30% to 70% or higher protein degradation)”.
Same read-out and setting: under `COc1ccc2c(c1)C(c1ccc(Cl)cc1)=N[C@@H](CC(=O)NCCNC(=O)Cc1cccc(B(O)O)c1)c1nnc(C)n1-2` [BRD-E38] stands “✓ (A black check mark indicates efficacy of 30% to 70% or higher protein degradation)”.
Take `CCNC(=O)C[C@@H]1N=C(c2ccc(Cl)cc2)c2cc(OCCOCCNC(=O)c3ccc(B(O)O)cc3)ccc2-n2c(C)nnc21` [BRD-E39]: the “Degradation of BRD4 … [drawing 397]” value was “✓ (A black check mark indicates efficacy of 30% to 70% or higher protein degradation)”.
For `CCNC(=O)C[C@@H]1N=C(c2ccc(Cl)cc2)c2cc(OCCOCCOCCNC(=O)c3cccc(B(O)O)c3)ccc2-n2c(C)nnc21` [BRD-E42], the “Degradation of BRD4 … [drawing 421]” value was “✓ (A black check mark indicates efficacy of 30% to 70% or higher protein degradation)”.
Regarding `CCNC(=O)C[C@@H]1N=C(c2ccc(Cl)cc2)c2cc(OCCOCCOCCOCCNC(=O)c3ccc(B(O)O)cc3)ccc2-n2c(C)nnc21` [BRD-E43], the “Degradation of BRD4 … [drawing 421]” value is “✓ (A black check mark indicates efficacy of 30% to 70% or higher protein degradation)” and the “Degradation of BRD4 … [drawing 422]” value is reported as “✓ (A black check mark indicates efficacy of 30% to 70% or higher protein degradation)”.
With `COc1ccc2c(c1)C(c1ccc(Cl)cc1)=N[C@@H](CC(=O)NCCOCCOCCNC(=O)c1ccc(B(O)O)cc1)c1nnc(C)n1-2` [BRD-E45], the “Degradation of BRD4 … [drawing 422]” value is on record as “✓ (A black check mark indicates efficacy of 30% to 70% or higher protein degradation)”. For the setting “Table 3”, the “Degradation of BRD4 … [drawing 442]” value is on record as “✓ (A black check mark indicates efficacy of 30% to 70% or higher protein degradation)”.
Take `CCNC(=O)C[C@@H]1N=C(c2ccc(SCc3ccc(B(O)O)cc3)cc2)c2cc(OC)ccc2-n2c(C)nnc21` [BRD-E54]: the “Degradation of BRD4 … [drawing 442]” value (Table 3) was “✓ (A black check mark indicates efficacy of 30% to 70% or higher protein degradation)”.
For the compound `COc1ccc2c(c1)C(c1ccc(Cl)cc1)=N[C@@H](CC(=O)Nc1ccc(B(O)O)cc1)c1nnc(C)n1-2` [BRD-E74, (4-(2-((4S)-6-(4-chlorophenyl)-8-methoxy-1-methyl-4H-benzo[f][1,2,4]triazolo[4,3-a][1,4]diazepin-4-yl)acetamido)phenyl)boronic acid], the “Degradation of BRD4 … [drawing 397]” value is given as “✓ (A black check mark indicates efficacy of 30% to 70% or higher protein degradation)” and the “Degradation of BRD4, combination with MDM2 ligand [drawing 431]” value was “✓ (A black check mark indicates efficacy of 30% to 70% or higher protein degradation)”.
As to `COc1ccc2c(c1)C(c1ccc(Cl)cc1)=N[C@@H](CC(=O)NCCNC(=O)c1ccc(O)c(O)c1)c1nnc(C)n1-2` [BRD-N01], the “Degradation of BRD4, combination with CRBN ligand [drawing 457]” value (“Degradation of BRD4 … [drawing 457]” below) is recorded as “✓ (A black check mark indicates efficacy of 30% to 70% or higher protein degradation)”.
As to `COc1ccc2c(c1)C(c1ccc(Cl)cc1)=N[C@@H](CC(=O)NCCCCNC(=O)c1ccc(O)c(O)c1)c1nnc(C)n1-2` [BRD-N05], the “Degradation of BRD4 … [drawing 457]” value is “✓ (A black check mark indicates efficacy of 30% to 70% or higher protein degradation)”.
Take `COc1ccc2c(c1)C(c1ccc(Cl)cc1)=N[C@@H](CC(=O)NCCCCNC(=O)c1cccc(O)c1O)c1nnc(C)n1-2` [BRD-N06]: the “Degradation of BRD4 … [drawing 457]” value is reported as “✓ (A black check mark indicates efficacy of 30% to 70% or higher protein degradation)”.
Consider `CCNC(=O)C[C@@H]1N=C(c2ccc(Cl)cc2)c2cc(OCCCCC(=O)Nc3ccc(O)c(O)c3)ccc2-n2c(C)nnc21` [BRD-N22, 5-(((4S)-6-(4-chlorophenyl)-4-(2-(ethylamino)-2-oxoethyl)-1-methyl-4H-benzo[f][1,2,4]triazolo[4,3-a][1,4]diazepin-8-yl)oxy)-N-(3,4-dihydroxyphenyl)pentanamide], for which the “Degradation of BRD4 … [drawing 457]” value was “✓ (A black check mark indicates efficacy of 30% to 70% or higher protein degradation)”.
As for `COc1ccc2c(c1)C(c1ccc(Cl)cc1)=N[C@@H](CC(=O)NCCNC(=O)Cc1ccc(O)c(O)c1)c1nnc(C)n1-2` [BRD-N30], the “Degradation of BRD4 … [drawing 457]” value was “✓ (A black check mark indicates efficacy of 30% to 70% or higher protein degradation)”.
